Tests used:
Assay in all cases: relative viability (nuclei count vs DMSO), 5 days (fraction); higher = more cells survive
[1] = compound: Cn1cc(-c2cnn3c(N)c(Br)c([C@@H]4CCCNC4)nc23)cn1 + COc1cc2c(Oc3ccc(NC(=O)C4(C(=O)Nc5ccc(F)cc5)CC4)cc3F)ccnc2cc1OCCCN1CCOCC1 [Foretinib] (partner 0.25 µM)
Summary of the method: (§1)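 The day after seeding in 1536-well plates, lung cancer cell lines were treated by pin tool with a single drug, or with a fixed anchor-drug dose together with five library-drug doses (not always all listed) in √10 steps. After 5 days, a combined fix-and-stain solution (final 0.05% Triton X-100, 1% formaldehyde, 1 ug/ml Hoechst) was added. Nuclei counted on 4× images gave relative viability as treated counts over vehicle counts, reported as the median of duplicate plates.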

[2] = compound: Cn1cc(-c2cnn3c(N)c(Br)c([C@@H]4CCCNC4)nc23)cn1 + O=C(CCCCCCC(=O)Nc1ccccc1)NO [Vorinostat] (partner 1 µM)
Summary of the method: as §1

[3] = compound: Cn1cc(-c2cnn3c(N)c(Br)c([C@@H]4CCCNC4)nc23)cn1 + CS(=O)(=O)N1CCN(Cc2cc3nc(-c4cccc5[nH]ncc45)nc(N4CCOCC4)c3s2)CC1 [Pictilisib] (partner 1 µM)
Summary of the method: as §1

[4] = compound: Cn1cc(-c2cnn3c(N)c(Br)c([C@@H]4CCCNC4)nc23)cn1 + NC(=O)Nc1cc(-c2cccc(F)c2)sc1C(=O)N[C@H]1CCCNC1 [AZD7762] (partner 0.2 µM)
Summary of the method: as §1

Cell Line	relative viability ([1]; first compound 0.05 µM)	relative viability ([1]; first compound 0.1581 µM)	relative viability ([1]; first compound 0.5 µM)	relative viability ([1]; first compound 1.581 µM)	relative viability ([1]; first compound 5 µM)	relative viability ([2]; first compound 0.05 µM)	relative viability ([2]; first compound 0.1581 µM)	relative viability ([2]; first compound 0.5 µM)	relative viability ([2]; first compound 1.581 µM)	relative viability ([2]; first compound 5 µM)	relative viability ([3]; first compound 0.05 µM)	relative viability ([3]; first compound 0.1581 µM)	relative viability ([3]; first compound 0.5 µM)	relative viability ([3]; first compound 1.581 µM)	relative viability ([3]; first compound 5 µM)	relative viability ([4]; first compound 0.05 µM)	relative viability ([4]; first compound 0.1581 µM)	relative viability ([4]; first compound 0.5 µM)	relative viability ([4]; first compound 1.581 µM)	relative viability ([4]; first compound 5 µM)
NCI-H2228	0.747	0.942	0.671	0.738	0.433	0.636	0.592	0.507	0.345	0.155	0.258	0.286	0.297	0.355	0.351	–	–	–	–	–
NCI-H2087	1.18	1.22	0.989	1.32	1	0.865	0.891	0.341	0.424	0.653	0.821	1	0.95	0.852	0.803	1.32	1.38	1.41	1.22	1.42
LU99A	0.805	0.768	0.821	0.706	0.716	0.46	0.469	0.452	0.36	0.216	0.308	0.296	0.29	0.277	0.225	0.371	0.392	0.304	0.264	0.224
NCI-H1355	1.05	1.21	0.967	0.89	0.955	0.645	0.743	0.664	0.524	0.564	0.402	0.474	0.467	0.408	0.342	0.718	0.846	0.672	0.623	0.458
NCI-H520	0.671	0.836	0.751	0.664	0.58	0.681	0.676	0.702	0.467	0.446	0.266	0.318	0.283	0.208	0.267	–	–	–	–	–
NCI-H661	1.05	0.991	0.979	1.02	0.932	0.829	0.82	0.833	0.736	0.63	0.321	0.432	0.441	0.291	0.357	–	–	–	–	–
NCI-H650	1.14	1.03	1.02	1	0.881	0.412	0.514	0.384	0.447	0.337	1.06	0.882	0.804	0.749	0.602	0.954	0.923	1.1	1.04	0.928
NCI-H647	1.17	1.27	1.25	1.01	0.416	0.625	0.607	0.522	0.256	0.15	0.485	0.409	0.368	0.291	0.341	0.497	0.496	0.349	0.37	0.238
SW 1573	0.97	1.09	0.865	0.848	1.01	0.818	0.967	0.682	0.582	0.721	0.48	0.572	0.502	0.461	0.499	–	–	–	–	–
COR-L23	1.07	1.13	1.08	0.907	0.439	0.387	0.273	0.24	0.187	0.117	0.952	1.16	0.597	0.447	0.257	–	–	–	–	–
SK-LU-1	0.819	0.709	0.485	0.28	0.211	0.92	0.631	0.407	0.369	0.281	0.569	0.424	0.458	0.365	0.278	–	–	–	–	–
NCI-H1650	–	1.3	1.2	1.05	0.658	0.594	0.524	0.471	0.595	0.336	0.66	0.654	0.681	0.479	0.24	–	–	–	–	–
UMC-11	1	0.984	0.851	0.773	0.51	0.331	0.313	0.345	0.334	0.291	0.926	0.782	0.709	0.397	0.431	–	–	–	–	–
SK-MES-1	0.909	1.04	0.946	0.867	0.566	1.22	0.877	0.788	0.38	0.216	0.333	0.395	0.336	0.288	0.216	–	–	–	–	–
NCI-H2009	1.24	1.32	1.05	1.16	1.14	0.82	0.806	0.722	0.818	0.528	0.712	0.873	0.714	0.517	0.552	–	–	–	–	–
NCI-H2023	0.785	0.604	0.688	0.201	0.178	0.65	0.349	0.428	0.177	0.097	0.268	0.226	0.194	0.143	0.11	–	–	–	–	–
COR-L 105	0.83	0.995	0.994	0.782	1.46	0.921	0.723	0.756	0.526	0.616	0.459	0.4	0.376	0.376	0.385	–	–	–	–	–
NCI-H1563	0.939	1.02	0.841	0.921	0.875	–	–	–	–	–	0.581	0.63	0.658	0.585	0.595	–	–	–	–	–
EBC-1	0.107	0.0968	0.0834	0.0926	0.0939	–	–	–	–	–	0.466	0.36	0.37	0.265	0.221	–	–	–	–	–
Calu-6	0.879	0.876	0.758	0.319	0.134	–	–	–	–	–	0.935	0.605	0.419	0.212	0.194	–	–	–	–	–
HCC-44	–	–	–	–	–	1.08	1.13	1.22	1.08	1.12	0.566	0.577	0.63	0.465	0.427	0.889	1.01	1.02	0.964	1.05
